One assay concerns COLO205 (colon). In words: Inhibition of cell proliferation, CellTiter-Glo, COLO205. In kind it is cell-based. Conditions: Homo sapiens, COLO 205, 72 h. The method, then:
C. Inhibition of Cell Proliferation
Cell proliferation was measured by either CellTiter-Glo (measures cellular ATP level as a surrogate for total cell number) or by InCell analyzer (counts number of nuclei as a measure of cell number). For CellTiter-Glo assay, exponentially growing cell lines of different tumor origins, cultured in appropriate media containing 10% fetal bovine serum at 37° C. in a 5% CO2 incubator, were plated at low density (less than 2000 cells/well) in 96-well plates. […] Several wells were left untreated as a control. Seventy two hours post-treatment, cell numbers were determined using 50-100 ul per well of CellTiter-Glo (Promega #G7573). Plates were incubated at 37° C. for 30 minutes and the chemiluminescent signal was read on the Victor V or Envison 2100 reader. […]
On the technique in general: Cellular ATP, detected with luciferase, serves as a proxy for viable cell number.

The target in assay [1] is T1, human IGF-1R (NIH-3T3 cells over expressing human IGF-1R) (Homo sapiens, UniProt P08069).
T1 construct: expressed in transfected cells; host or cells: NIH-3T3 (mouse fibroblasts)
In words: IGF-1R cellular autophosphorylation (DELFIA). In kind it is cell-based. As to conditions: IGF-1 stimulated. As for the experimental part: D. IGF-1R and IR Cellular Autophosphorylation (DELFIA)
NIH-3T3 cells over expressing human IGF-1R or IR were plated in 96-well plates (10,000 cells/well) in culture media containing 10% fetal bovine serum and incubated at 37° C. in a 5% CO2 incubator. Twenty four hours post-plating, cells were treated with different concentrations of test compounds ranging from 30 uM to 1.5 nM. Two hours after compound addition, cells were stimulated with either human IGF-1 (30 ng/mL) or insulin (3 ug/mL) for 15 minutes. Cell lysates are analyzed for phosphorylated receptors using dissociation enhanced lanthanide fluor-immuno assay (DELFIA) with anti-IGF-1R (MAB391, R&D Systems, Minneapolis, Minn.) or anti-IR[…](sc-711, Santa Cruz Biotechnology, Santa Cruz, Calif.) capture antibody and europium-labeled anti-pTyr antibody (Eu-N1 PT66, Perkin Elmer, Waltham, Mass.) for detection. The fluorescence signal for cells treated with compounds was expressed as percent relative to 100% stimulation (IGF-1 or insulin stimulated signal). […]

What is called IC50 is the concentration needed to halve the response being measured. The low end stands for greater potency, the high end for weaker potency.

Molecules are shown by their SMILES.

T1 sequence (P08069 31-1367): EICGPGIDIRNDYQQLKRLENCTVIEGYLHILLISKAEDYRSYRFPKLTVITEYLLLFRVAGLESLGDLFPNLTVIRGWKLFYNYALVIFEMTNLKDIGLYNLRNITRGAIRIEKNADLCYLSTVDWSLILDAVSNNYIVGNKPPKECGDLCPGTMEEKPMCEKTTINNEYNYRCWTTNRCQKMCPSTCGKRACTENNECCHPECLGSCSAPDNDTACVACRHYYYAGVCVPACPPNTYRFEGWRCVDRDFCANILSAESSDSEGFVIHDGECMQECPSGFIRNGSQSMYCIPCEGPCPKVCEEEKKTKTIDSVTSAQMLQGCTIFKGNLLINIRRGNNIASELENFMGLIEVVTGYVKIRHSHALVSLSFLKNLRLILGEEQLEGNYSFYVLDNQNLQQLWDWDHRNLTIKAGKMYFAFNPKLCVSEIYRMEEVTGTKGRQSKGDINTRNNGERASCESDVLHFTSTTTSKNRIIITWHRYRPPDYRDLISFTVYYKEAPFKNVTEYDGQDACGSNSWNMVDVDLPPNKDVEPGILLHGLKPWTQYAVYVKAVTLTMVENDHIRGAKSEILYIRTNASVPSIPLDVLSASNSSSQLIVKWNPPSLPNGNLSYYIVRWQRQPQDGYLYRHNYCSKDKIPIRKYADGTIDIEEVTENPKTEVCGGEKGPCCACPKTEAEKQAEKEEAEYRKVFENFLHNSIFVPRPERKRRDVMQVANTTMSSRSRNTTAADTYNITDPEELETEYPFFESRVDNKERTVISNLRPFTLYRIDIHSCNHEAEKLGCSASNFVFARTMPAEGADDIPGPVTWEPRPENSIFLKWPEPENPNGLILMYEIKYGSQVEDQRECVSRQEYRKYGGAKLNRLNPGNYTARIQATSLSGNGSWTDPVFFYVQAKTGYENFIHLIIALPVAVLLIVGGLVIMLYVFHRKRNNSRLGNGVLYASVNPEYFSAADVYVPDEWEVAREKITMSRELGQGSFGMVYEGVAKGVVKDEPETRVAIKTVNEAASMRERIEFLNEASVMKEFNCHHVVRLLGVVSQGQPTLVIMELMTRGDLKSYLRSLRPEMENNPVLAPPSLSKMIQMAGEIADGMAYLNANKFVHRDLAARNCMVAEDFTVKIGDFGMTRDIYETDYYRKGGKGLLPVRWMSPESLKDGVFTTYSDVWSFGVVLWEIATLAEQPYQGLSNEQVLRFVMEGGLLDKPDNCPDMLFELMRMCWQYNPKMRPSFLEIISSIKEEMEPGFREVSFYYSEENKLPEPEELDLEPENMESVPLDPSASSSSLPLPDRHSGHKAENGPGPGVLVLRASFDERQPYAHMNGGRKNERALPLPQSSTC

For `COc1cc(N2CCC(N3CC[C@H](F)C3)CC2)ccc1Nc1nccc(-c2c(-c3cccc(C(=O)Nc4c(F)cccc4F)c3)nc3ccccn23)n1` [Example 77, N-(2,6-difluorophenyl)-3-[3-(2-{[4-{4-[(3S)-3-fluoro-1-pyrrolidinyl]-1-piperidinyl}-2-(methyloxy)phenyl]amino}-4-pyrimidinyl)imidazo[1,2-a]pyridin-2-yl]benzamide], the IC50 is 250 to 1000 nM in the assay on COLO205 (colon) and less than 100 nM in assay [1].
On the same counts, the results for `COc1cc(CCN2CCN(C)CC2)ccc1Nc1nccc(-c2c(-c3ccc(OC)c(C(=O)Nc4c(F)cccc4F)c3)nc3ccccn23)n1` [Example 131, N-(2,6-difluorophenyl)-2-(methyloxy)-5-{3-[2-({2-(methyloxy)-4-[2-(4-methyl-1-piperazinyl)ethyl]phenyl}amino)-4-pyrimidinyl]imidazo[1,2-a]pyridin-2-yl}benzamide] are less than 250 nM and less than 100 nM.
`Cc1ccn2c(-c3ccnc(Nc4cccc(OCCN(C)C)c4)n3)c(-c3cccc(C(=O)Nc4c(F)cccc4F)c3)nc2c1` [Example 14, N-(2,6-difluorophenyl)-3-(3-{2-[(3-{[2-(dimethylamino)ethyl]oxy}phenyl)amino]-4-pyrimidinyl}-7-methylimidazo[1,2-a]pyridin-2-yl)benzamide] had an IC50 in assay [1] of more than 500 nM.
Turning to `CN(C)CCOc1cccc(Nc2nccc(-c3c(-c4cccc(C(=O)Nc5ccc(F)cc5F)c4)nc4ccccn34)n2)c1` [Example 13], in assay [1], the IC50 was less than 100 nM.
Take `COc1cc(N2CCC(N3CCOCC3)CC2)ccc1Nc1nccc(-c2c(-c3cccc(C(=O)Nc4c(F)cccc4F)c3)nc3ccccn23)n1` [Example 38, N-(2,6-difluorophenyl)-3-{3-[2-({2-(methyloxy)-4-[4-(4-morpholinyl)-1-piperidinyl]phenyl}amino)-4-pyrimidinyl]imidazo[1,2-a]pyridin-2-yl}benzamide]: the values for the IC50 (with COLO205 (colon); in assay [1]) were 250 to 1000 nM and less than 100 nM, respectively.
On the same counts, the results for `COc1ccn2c(-c3ccnc(Nc4cccc(OCCN(C)C)c4)n3)c(-c3ccc(OC)c(C(=O)Nc4c(F)cccc4F)c3)nc2c1` [Example 3, N-(2,6-difluorophenyl)-5-[3-{2-[(3-{[2-(dimethylamino)ethyl]oxy}phenyl)amino]-4-pyrimidinyl}-7-(methyloxy)imidazo[1,2-a]pyridin-2-yl]-2-(methyloxy)benzamide] are 250 to 1000 nM and 100 to 500 nM.
The matching figures for `COc1cc(N2CCC(N(C)C)CC2)ccc1Nc1nccc(-c2c(-c3cccc(C(=O)Nc4c(F)cccc4F)c3)nc3ccccn23)n1` [Example 74, N-(2,6-difluorophenyl)-3-[3-(2-{[4-[4-(dimethylamino)-1-piperidinyl]-2-(methyloxy)phenyl]amino}-4-pyrimidinyl)imidazo[1,2-a]pyridin-2-yl]benzamide]: less than 250 nM and less than 100 nM.
On the same counts, the results for `COc1ccc(N2CCC(N3CCCCC3)CC2)cc1Nc1nccc(-c2c(-c3ccc(OC)c(C(=O)Nc4c(F)cccc4F)c3)nc3ccccn23)n1` [Example 31, 5-[3-(2-{[5-(1,4′-bipiperidin-1-yl)-2-(methyloxy)phenyl]amino}-4-pyrimidinyl)imidazo[1,2-a]pyridin-2-yl]-N-(2,6-difluorophenyl)-2-(methyloxy)benzamide] are 250 to 1000 nM and less than 100 nM.
As to `Cc1c(CN2CCN(C)CC2)cccc1Nc1nccc(-c2c(-c3cccc(C(=O)Nc4c(F)cccc4F)c3)nc3ccccn23)n1` [Example 24], the concentration for half-maximal inhibition (IC50) in the assay on COLO205 (colon) was 250 to 1000 nM; in assay [1], less than 100 nM.
As to `CN(C)CCOc1cccc(Nc2nccc(-c3c(-c4cccc(C(=O)Nc5cc(C(F)(F)F)ccc5F)c4)nc4ccccn34)n2)c1` [Example 10, 3-(3-{2-[(3-{[2-(dimethylamino)ethyl]oxy}phenyl)amino]-4-pyrimidinyl}imidazo[1,2-a]pyridin-2-yl)-N-[2-fluoro-5-(trifluoromethyl)phenyl]benzamide], in assay [1], the IC50 fell in the range of 100 to 500 nM.
Take `COc1cc(N2CCN(C(C)C)CC2)ccc1Nc1nccc(-c2c(-c3cccc(C(=O)Nc4c(F)cccc4F)c3)nc3ccccn23)n1` [Example 175, N-(2,6-difluorophenyl)-3-[3-(2-{[4-[4-(1-methylethyl)-1-piperazinyl]-2-(methyloxy)phenyl]amino}-4-pyrimidinyl)imidazo[1,2-a]pyridin-2-yl]benzamide]: the IC50 with COLO205 (colon) was 250 to 1000 nM; in assay [1] it was less than 100 nM.
Regarding `COc1cc(N2CCC(OC)CC2)ccc1Nc1nccc(-c2c(-c3ccc(OC)c(C(=O)Nc4c(F)cccc4F)c3)nc3ccccn23)n1` [Example 126, N-(2,6-difluorophenyl)-2-(methyloxy)-5-{3-[2-({2-(methyloxy)-4-[4-(methyloxy)-1-piperidinyl}phenyl}amino)-4-pyrimidinyl]imidazo[1,2-a]pyridin-2-yl]benzamide], the IC50 with COLO205 (colon) was 250 to 1000 nM; in assay [1], less than 100 nM.
`COc1cc(N2CCC(N3CCC[C@H](O)C3)CC2)ccc1Nc1nccc(-c2c(-c3ccc(OC)c(C(=O)Nc4c(F)cccc4F)c3)nc3ccccn23)n1` [Example 84, N-(2,6-difluorophenyl)-5-[3-(2-{[4-[(3S)-3-hydroxy-1,4′-bipiperidin-1′-yl]-2-(methyloxy)-phenyl]amino}-4-pyrimidinyl)imidazo[1,2-a]pyridin-2-yl]-2-(methyloxy)benzamide]: the results for the half-maximal inhibitory concentration (IC50) (in the assay on COLO205 (colon); in assay [1]) were less than 250 nM and less than 100 nM, respectively.
On the same counts, the results for `COc1cc(N2CCC(N3CC[C@@H](F)C3)CC2)ccc1Nc1nccc(-c2c(-c3cccc(C(=O)Nc4c(F)cccc4F)c3)nc3ccccn23)n1` [Example 76, N-(2,6-difluorophenyl)-3-[3-(2-{[4-{4-[(3R)-3-fluoro-1-pyrrolidinyl]-1-piperidinyl}-2-(methyloxy)phenyl]amino}-4-pyrimidinyl)imidazo[1,2-a]pyridin-2-yl]benzamide] are 250 to 1000 nM and less than 100 nM.
For `COc1cc(CCN2CCCCC2)c(F)cc1Nc1nccc(-c2c(-c3ccc(OC)c(C(=O)Nc4c(F)cccc4F)c3)nc3ccccn23)n1` [Example 127, N-(2,6-difluorophenyl)-5-{3-[2-({5-fluoro-2-(methyloxy)-4-[2-(1-piperidinyl)ethyl]phenyl}-amino)-4-pyrimidinyl}imidazo[1,2-a]pyridin-2-yl}-2-(methyloxy)benzamide], the figures for the IC50 (in the assay on COLO205 (colon); in assay [1]) were 250 to 1000 nM and less than 100 nM, respectively.
Turning to `CN(C)CCOc1cccc(Nc2nccc(-c3c(-c4cccc(C(=O)Nc5cc(Cl)ccc5F)c4)nc4ccccn34)n2)c1` [Example 9, N-(5-chloro-2-fluorophenyl)-3-(3-{2-[(3-{[2-(dimethylamino)ethyl]oxy}phenyl)amino]-4-pyrimidinyl}imidazo[1,2-a]pyridin-2-yl)benzamide], the IC50 in assay [1] was in the range of 100 to 500 nM.
On to `COc1ccc(-c2nc3ccccn3c2-c2ccnc(Nc3cccc(CN4CCN(C)CC4)c3C)n2)cc1C(=O)Nc1c(F)cccc1F` [Example 25, N-(2,6-difluorophenyl)-5-{3-[2-({2-methyl-3-[(4-methyl-1-piperazinyl)methyl]phenyl}amino)-4-pyrimidinyl}imidazo[1,2-a]pyridin-2-yl]-2-(methyloxy)benzamide], for which the IC50 in the assay on COLO205 (colon) lay in the range of 250 to 1000 nM; in assay [1] it was 100 to 500 nM.
Turning to `COc1cc(N2CCOCC2)ccc1Nc1nccc(-c2c(-c3cccc(C(=O)Nc4c(F)cccc4F)c3)nc3ccccn23)n1` [Example 71, N-(2,6-difluorophenyl)-3-[3-(2-{[2-(methyloxy)-4-(4-morpholinyl)phenyl]amino}-4-pyrimidinyl)imidazo[1,2-a]pyridin-2-yl]benzamide], the figures for the IC50 (in the assay with COLO205 (colon); in assay [1]) were 250 to 1000 nM and less than 100 nM, respectively.
In assay [1], `COc1cc(-c2nnc(CN3CCCC3)o2)ccc1Nc1nccc(-c2c(-c3cccc(C(=O)Nc4c(F)cccc4F)c3)nc3ccccn23)n1` [Example 29, N-(2,6-difluorophenyl)-3-{3-[2-({2-(methyloxy)-4-[5-(1-pyrrolidinylmethyl)-1,3,4-oxadiazol-2-yl]phenyl}amino)-4-pyrimidinyl]imidazo[1,2-a]pyridin-2-yl}benzamide] yielded an IC50 of 100 to 500 nM.
Still for that read-out and setting: the same measure for `COc1cc(-c2nnc(CN3CCCC3)o2)ccc1Nc1nccc(-c2c(-c3ccc(OC)c(C(=O)Nc4c(F)cccc4F)c3)nc3ccccn23)n1` [Example 28, N-(2,6-difluorophenyl)-2-(methyloxy)-5-{3-[2-({2-(methyloxy)-4-[5-(1-pyrrolidinylmethyl)-1,3,4-oxadiazol-2-yl]phenyl]amino)-4-pyrimidinyl}imidazo[1,2-a]pyridin-2-yl}benzamide]: 100 to 500 nM.
With `COc1cc(N2CCC(N3CCN(S(C)(=O)=O)CC3)CC2)ccc1Nc1nccc(-c2c(-c3ccc(OC)c(C(=O)Nc4c(F)cccc4F)c3)nc3ccccn23)n1` [Example 69], the IC50 with COLO205 (colon) was in the range of 250 to 1000 nM.

The values above are taken from patent publication US20100216779A1 (GLAXOSMITHKLINE LLC, priority 2007, published 2010).
